The source made the active and inactive calls. The calls are words filed in the database; no cut-off is given here.

What all share (format): functional, cell-based
For experiment [1], the target named is T1, G-protein coupled receptor 35 (Homo sapiens, UniProt Q9HC97). Nature of the experiment: Agonist activity at GPR35 in human HT-29 cells measured after 10 mins by dynamic mass redistribution assay.
Experiment [2] addresses T1, G-protein coupled receptor 35. Nature of the experiment: Agonist activity at human GPR35 expressed in U2OS cells coexpressing Gal4-VP16/beta-arrestin fusion protein after 5 hrs by tango beta-arrestin translocation reporter gene assay. On the technique in general: In a reporter assay the amount or activity of a reporter protein is the signal.
Experiment [3] has the same target. Nature of the experiment: Agonist activity at human GPR35 expressed in U2OS cells coexpressing Gal4-VP16/beta-arrestin fusion protein after 5 hrs by tango beta-arrestin translocation reporter gene assay relative to zaprinast.
Experiment [4] has the same target. The experiment in a line: Agonist activity at GPR35 in human HT-29 cells at 32 uM measured after 10 mins by dynamic mass redistribution assay in presence of SPB05142.
Experiment [5] shares this target. The experiment in a line: Agonist activity at human GPR35 expressed in U2OS cells coexpressing Gal4-VP16/beta-arrestin fusion protein at 100 uM after 5 hrs by tango beta-arrestin translocation reporter gene assay in presence of ML145.
The target is the same in experiment [6]. Nature of the experiment: Agonist activity at GPR35 in human HT-29 cells at 1 uM measured after 10 mins by dynamic mass redistribution assay in presence of SPB05142.
Experiment [7] has the same target. Nature of the experiment: Agonist activity at GPR35 in human HT-29 cells at 64 uM measured after 10 mins by dynamic mass redistribution assay in presence of SPB05142.

T1 sequence (Q9HC97 whole entry, the tested form may be a part): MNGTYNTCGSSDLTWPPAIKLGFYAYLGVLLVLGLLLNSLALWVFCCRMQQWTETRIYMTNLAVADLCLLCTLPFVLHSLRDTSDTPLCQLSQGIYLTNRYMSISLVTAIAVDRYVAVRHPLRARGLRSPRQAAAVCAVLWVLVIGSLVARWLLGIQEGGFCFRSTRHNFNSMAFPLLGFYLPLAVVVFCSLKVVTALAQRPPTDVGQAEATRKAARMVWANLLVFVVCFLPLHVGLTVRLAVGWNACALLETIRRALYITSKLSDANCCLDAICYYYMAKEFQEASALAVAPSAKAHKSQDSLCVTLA

Usually EC50 stands for the concentration that produces a half-maximal response. For the compound `O=C(O)c1cc2cc(O)c(O)cc2[nH]1`, the EC50 in experiment [1] (read-out: EC50) was determined as 23.6 µM; in experiment [2] (read-out: EC50) it was 23.2 µM. The same compound had an Efficacy in experiment [3] of 75%.

On to `O=C(O)c1[nH]c2cc(O)c(O)cc2c1-c1ccccc1`, for which the EC50 in experiment [1] (read-out: EC50) was 20.2 µM; in experiment [2] (u2os), “Not Active”.

In the case of `Cc1c(C(=O)O)sc2cc(O)c(O)cc12`, the EC50 was 6.17 µM in experiment [1] (read-out: EC50) and 90.6 µM in experiment [2] (read-out: EC50). Besides, the result in experiment [4] was inactive. The same compound came in with an Efficacy in experiment [3] of 109%.

For `CCn1c(C(=O)O)cc2cc(O)c(O)cc21`, the EC50 came out at 77.1 µM in experiment [1] (read-out: EC50) and 45.7 µM in experiment [2] (read-out: EC50). In addition, in experiment [3], the Efficacy was found to be 52%.

With `Cc1c(C(=O)O)sc2cc(Br)c(O)c(Br)c12`, the values for the EC50 in experiment [1] (read-out: EC50) and in experiment [2] (read-out: EC50) were 0.16 µM and 46.5 µM, respectively. Besides, the outcome in experiment [5] and in experiment [6] was inactive. In experiment [3], this compound displayed an Efficacy of 94%.

Regarding `O=C(O)c1[nH]c2cc(O)c(O)cc2c1-c1cccc(Cl)c1`, the concentration for a half-maximal effect (EC50) was 2.48 µM in experiment [1] (read-out: EC50) and 34.4 µM in experiment [2] (read-out: EC50). In experiment [3], this compound returned an Efficacy of 19%.

As for `O=C(O)c1cc2cc(O)c(O)cc2n1Cc1ccccc1`, the EC50 in experiment [1] (read-out: EC50) was 43.5 µM; in experiment [2] (u2os), “Not Active”.

With `O=C(O)c1cccc(-c2c(C(=O)O)[nH]c3cc(O)c(O)cc23)c1`, the EC50 in experiment [1] (read-out: EC50) is 24.9 µM; in experiment [2] (read-out: EC50), 75.7 µM. In experiment [3], the Efficacy came out at 17%.

Take `Cc1ccc(Cn2c(C(=O)O)cc3cc(O)c(O)cc32)cc1`: the EC50 in experiment [1] (read-out: EC50) is 17.3 µM; in experiment [2] (read-out: EC50) it was greater than 500 µM. In experiment [3], the Efficacy is greater than 25%.

Turning to `O=C(O)Cn1c(C(=O)O)cc2cc(O)c(O)cc21`, the EC50 result in experiment [1] (ht-29) and in experiment [2] (u2os) was “Not Active” throughout.

`Cc1ccc(C(=O)Cn2c(C(=O)O)cc3cc(O)c(O)cc32)cc1`: the EC50 was 39.7 µM in experiment [1] (read-out: EC50) and “Not Active” in experiment [2] (u2os).

With `O=C(O)c1cc2cc(O)c(O)cc2s1`, the EC50 in experiment [1] (read-out: EC50) was determined as 7.35 µM; in experiment [2] (read-out: EC50) it was 520 µM. Besides, the outcome in experiment [4] was inactive. This compound showed an Efficacy in experiment [3] of 86%.

Turning to `O=C(O)c1[nH]c2cc(O)c(O)cc2c1Br`, the half-maximal effective concentration (EC50) in experiment [1] (read-out: EC50) came out at 4.1 µM; in experiment [2] (read-out: EC50), 166 µM. In experiment [3], the Efficacy was 48%.

`O=C(Cn1c(C(=O)O)cc2cc(O)c(O)cc21)c1ccccc1`: the figures for the EC50 in experiment [1] (read-out: EC50) and in experiment [2] (u2os) were 43.7 µM and “Not Active”, respectively.

As to `Cc1c(C(=O)O)oc2cc(O)c(O)cc12`, the EC50 was 16.2 µM in experiment [1] (read-out: EC50) and 133 µM in experiment [2] (read-out: EC50). In addition, in experiment [7], the outcome was inactive. Further, in experiment [3], the Efficacy is 27%.

For the compound `O=C(O)c1[nH]c2cc(O)c(O)cc2c1-c1ccc(Cl)cc1`, the EC50 came out at 2.54 µM in experiment [1] (read-out: EC50) and 387 µM in experiment [2] (read-out: EC50). This compound gave an Efficacy in experiment [3] of 89%.

For `O=C(O)c1[nH]c2cc(O)c(O)cc2c1-c1cc(Cl)cc(Cl)c1`, the EC50 in experiment [1] (read-out: EC50) came out at 1.06 µM; in experiment [2] (read-out: EC50), 24.2 µM. Further, the Efficacy in experiment [3] was 25%.

For `O=C(O)c1[nH]c2cc(O)c(O)cc2c1-c1ccsc1`, the EC50 in experiment [1] (read-out: EC50) amounted to 10.3 µM; in experiment [2] (read-out: EC50), 61.2 µM. The Efficacy in experiment [3] came to 18%.

Take `O=C(O)c1[nH]c2cc(O)c(O)cc2c1-c1ccc(C(F)(F)F)cc1`: the EC50 in experiment [1] (read-out: EC50) is 12.9 µM; in experiment [2] (u2os) it was “Not Active”.

As to `Cn1c(C(=O)O)cc2cc(O)c(O)cc21`, the EC50 was 64.2 µM in experiment [1] (read-out: EC50) and 45.4 µM in experiment [2] (read-out: EC50). The compound further came in with an Efficacy in experiment [3] of 85%.

Turning to `O=C(O)c1[nH]c2cc(O)c(O)cc2c1-c1cc(F)cc(F)c1`, the EC50 in experiment [1] (read-out: EC50) is 4.36 µM; in experiment [2] (read-out: EC50) it was 109 µM. For the same compound, the Efficacy in experiment [3] turned out to be 48%.

`O=C(O)c1ccc(-c2c(C(=O)O)[nH]c3cc(O)c(O)cc23)cc1`: the EC50 in experiment [1] (read-out: EC50) was 22.6 µM; in experiment [2] (read-out: EC50), 10.8 µM. In experiment [3], the Efficacy came to 40%.

With `O=C(O)c1[nH]c2cc(O)c(O)cc2c1-c1cccnc1`, the EC50 in experiment [1] (read-out: EC50) was 84 µM; in experiment [2] (u2os) it was “Not Active”.

The record behind these values is ChEMBL document CHEMBL2086317, “Synthesis and Agonistic Activity at the GPR35 of 5,6-Dihydroxyindole-2-carboxylic Acid Analogues” (ACS Med Chem Lett, 2012).
